The record followed here is patent US7825256B2, “Inducible nitric oxide synthase dimerization inhibitors” (Kalypsys, Inc., priority 2004, dated 2010).

For the assay, the target named is T1, heNOS (Homo sapiens, UniProt P29474).
T1 construct: expressed in transfected cells; host or cells: HEK293
T1 sequence (P29474 2-1203 limits assumed): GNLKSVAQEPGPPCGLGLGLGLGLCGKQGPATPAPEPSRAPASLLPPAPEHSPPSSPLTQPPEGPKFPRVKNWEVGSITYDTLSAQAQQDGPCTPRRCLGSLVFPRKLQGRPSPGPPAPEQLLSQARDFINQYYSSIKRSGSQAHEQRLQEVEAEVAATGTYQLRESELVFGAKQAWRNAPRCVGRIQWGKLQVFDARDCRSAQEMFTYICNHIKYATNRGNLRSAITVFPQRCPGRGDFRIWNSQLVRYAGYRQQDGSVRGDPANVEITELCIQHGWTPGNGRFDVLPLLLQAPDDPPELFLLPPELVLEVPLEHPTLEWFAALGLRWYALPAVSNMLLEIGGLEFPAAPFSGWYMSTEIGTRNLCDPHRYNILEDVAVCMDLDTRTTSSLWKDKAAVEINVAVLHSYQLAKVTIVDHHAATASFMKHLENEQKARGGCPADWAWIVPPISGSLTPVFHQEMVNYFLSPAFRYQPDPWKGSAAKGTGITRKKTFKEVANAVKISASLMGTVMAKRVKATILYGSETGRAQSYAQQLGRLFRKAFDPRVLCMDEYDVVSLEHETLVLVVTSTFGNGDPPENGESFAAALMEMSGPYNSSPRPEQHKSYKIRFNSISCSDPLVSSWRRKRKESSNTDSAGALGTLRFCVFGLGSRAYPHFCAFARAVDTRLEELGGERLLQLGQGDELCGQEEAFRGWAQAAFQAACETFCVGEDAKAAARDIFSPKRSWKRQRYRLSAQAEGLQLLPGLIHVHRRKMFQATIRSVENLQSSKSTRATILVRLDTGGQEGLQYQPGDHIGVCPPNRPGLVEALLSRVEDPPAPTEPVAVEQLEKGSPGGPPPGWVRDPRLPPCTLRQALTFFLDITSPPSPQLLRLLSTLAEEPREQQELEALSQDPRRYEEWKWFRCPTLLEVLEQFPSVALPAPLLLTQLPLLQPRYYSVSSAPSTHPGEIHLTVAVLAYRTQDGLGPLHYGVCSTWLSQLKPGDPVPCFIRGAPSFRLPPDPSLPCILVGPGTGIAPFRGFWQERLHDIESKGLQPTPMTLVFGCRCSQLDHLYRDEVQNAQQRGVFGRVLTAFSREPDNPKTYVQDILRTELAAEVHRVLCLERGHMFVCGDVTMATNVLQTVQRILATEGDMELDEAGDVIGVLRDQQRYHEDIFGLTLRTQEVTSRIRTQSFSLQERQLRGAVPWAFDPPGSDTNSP
Put plainly: DAN assay, heNOS expressed in transiently transfected HEK293 cells. The format is cell-based. As to conditions: HEK293 cells transiently transfected with heNOS. From the text:
The source of nitric oxide synthase (NOS) enzyme can be generated in several ways including induction of endogenous iNOS using cytokines and/or lipopolysaccharide (LPS) in various cell types known in the art. Alternatively, the gene encoding the enzyme can be cloned and the enzyme can be generated in cells via heterologous expression from a transient or stable expression plasmid with suitable features for protein expression as are known in the art. Enzymatic activity (nitric oxide production) is calcium independent for iNOS, while the constitutive NOS isoforms, nNOS and eNOS, become active with the addition of various cofactors added to cellular media or extract as are well known in the art. Enzymes specified in Table 1 were expressed in HEK293 cells transiently transfected with the indicated NOS isoform.
A major metabolic pathway for nitric oxide is to nitrate and nitrite, which are stable metabolites within tissue culture, tissue, plasma, and urine (S Moncada, A Higgs, N Eng J Med 329, 2002 (1993)).
The level of nitrate or nitrite in the specimen can be quantified by any method known in the art which provides adequate sensitivity and reproducibility. A variety of protocols have also been described for detecting and quantifying nitrite and nitrate levels in biological fluids by ion chromatography (e.g., S A Everett et al., J. Chromatogr. 706, 437 (1995); J M Monaghan et al., J. Chromatogr. 770, 143 (1997)), high-performance liquid chromatography (e.g., M Kelm et al., Cardiovasc. Res. 41, 765 (1999)), and capillary electrophoresis (M A Friedberg et al., J. Chromatogr. 781, 491 (1997)). […] Using 2,3-diaminonaphthalene (“DAN”), researchers have developed a rapid, quantitative fluorometric assay that can detect from 10 nM to 10 μM nitrite and is compatible with a multi-well microplate format. […]
A specimen can be processed prior to determination of nitrate or nitrite as required by the quantification method, or in order to improve the results, or for the convenience of the investigator. […]
Usually EC50 stands for the concentration needed to bring the measured effect to its halfway point. Low readings indicate greater potency, high ones weaker potency. `CN(CCCNCc1ccc2c(c1)OCO2)c1nc(-n2ccnc2)ns1` [Example 2, N′-Benzo[1,3]dioxol-5-ylmethyl-N-(3-imidazol-1-yl-[1,2,4]thiadiazol-5-yl)-N-methyl-propane-1,3-diamine] registered an EC50 above 10 µM.

Regarding `Cc1cc(C2CCCN2C(=O)NCCc2ccc3c(c2)OCO3)nc(-n2ccnc2)n1` (stereo not drawn) [Example 4, 2-(2-Imidazol-1-yl-6-methyl-pyrimidin-4-yl)-pyrrolidine-1-carboxylic acid (2-benzo[1,3]dioxol-5-yl-ethyl)-amide], the concentration for a half-maximal effect (EC50) is above 10 µM.

Take `Cc1cc(C2CCCN2C(=O)CNCc2ccc3c(c2)OCO3)nc(-n2ccnc2)n1` (stereo not drawn) [Example 5]: the EC50 was above 10 µM.
